Assay results: patent US6326369A, “Bicyclic quinone compounds, their production and use” (Takeda Chemicals Industries, Ltd., priority 1997, dated 2001)
Where two headings read alike, the source gives them in different places.

Test system: Brain Homogenate
Assay: Peroxylipid formation inhibiting effect in brain homogenate (thiobarbituric acid (TBA) method)
Type: biochemical, Wistar rats (male, 12-week old)
Conditions: 37° C., 30 minutes, pH 7.4
Protocol: JC1:Wistar rats (male, 12-week old) were used as test animals. The rats were sacrificed by decapitation, and the brain was quickly removed and homogenized with 10 ml of 10 mM Tris-HCl buffer (pH 7.4) containing 150 mM KCl. The resulting homogenate was centrifuged at 2,200 rpm, at 4° C., for 10 minutes, and the supernatant was used in the test. 250 μl of the supernatant was put into a 96-well plate, to which was added a test compound and incubated at 37° C. for 30 minutes.
The concentration of glutamic acid and succinic acid, if added prior to the incubation, was 5.0 mM and 2.5 mM, respectively.
To determine the amount of the peroxylipid formed, used was a thiobarblturic acid (TBA) method. Briefly, 50 μl of 35% perchloric acid was added to the incubated mixture, which was then centrifuged at 2,000 rpm, at 4° C., for 10 minutes. The resulting supernatant was transferred into a different 96-well plate in an amount of 200 μl/well. 100 μl/well of TBA (5 mg/ml TBA in 50% acetic acid) was added thereto, and reacted at 80° C. for 1 hour. Then, the reaction mixture was cooled to room temperature, and its absorbance at 532 nm was measured.
On the other hand, a calibration curve was prepared using tetraethoxypropane which is a […] for TBA. In the same manner, the peroxylipid concentration in a sample that had been incubated for 30 minutes in the absence of the test compound, and also the peroxylipid concentration in a sample to which had been added 35% perchloric acid prior to the incubation (in the absence of the test compound) were also obtained. The inhibition percentage was calculating according to the following equation. The 50% inhibitory concentration (IC50) was obtained, using a log-probit method.
Inhibition Percentage (%)=[(C-A)/(C-B)]×100
A: Peroxylipid concentration in the sample to which was added the test compound;
B: Peroxylipid concentration in the sample to which was added 35% perchloric acid prior to the incubation;
C: Peroxylipid concentration in the sample to which was not added the test compound.

[1] = brain homogenate only, read-out: Peroxylipid Formation Inhibiting Effect (IC50) Brain Homogenate Only
[2] = glutamic acid 5.0 mM and succinic acid 2.5 mM added prior to incubation, read-out: Peroxylipid Formation Inhibiting Effect (IC50) Glutamic Acid and Succinic Acid Added

Compound	IC50 [1] [nM]	IC50 [2] [nM]
COC1=C(OC)C(=O)C2=C(CC(CCCCCCCCO)C2)C1=O [Ex. 10, 2-(8-Hydroxyoctyl)-5,6-dimethoxyindan-4,7-dione]	1100	170
CCOC(=O)CCCCCCCC1CC2=C(C1)C(=O)C(OC)=C(OC)C2=O [Ex. 9, Ethyl 8-(5,6-dimethoxy-4,7-dioxoindan-2-yl)octanoate]	2300	940
